Assay results: PubChem BioAssay (NCI)
“And” between values parts separate entries of the source, which are not always exact repeats. Identical values can stand only once.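 Tested at 5 concentrations; 48 h exposure; 96-well plates; endpoints linearly interpolated, else capped at highest concentration. At the GI50, growth is halved. TGI: total growth inhibition.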

Key:
Experiment in all cases: NCI tumour cell line growth inhibition, 48 h
COLO 205 colon = test system: COLO 205 colon
A549 NSCLC = test system: A549 NSCLC
KM12 colon = test system: KM12 colon
SF-539 CNS = test system: SF-539 CNS
UACC-62 melanoma = test system: UACC-62 melanoma
OVCAR-4 ovarian = test system: OVCAR-4 ovarian
SW-620 colon = test system: SW-620 colon
HCC-2998 colon = test system: HCC-2998 colon
SNB-75 CNS = test system: SNB-75 CNS
SK-OV-3 ovarian = test system: SK-OV-3 ovarian

SMILES | GI50 (COLO 205 colon) | TGI (COLO 205 colon) [µM] | GI50 (A549 NSCLC) | TGI (A549 NSCLC) [µM] | GI50 (KM12 colon) | TGI (KM12 colon) [µM] | GI50 (SF-539 CNS) | TGI (SF-539 CNS) | GI50 (UACC-62 melanoma) | TGI (UACC-62 melanoma) [µM] | GI50 (OVCAR-4 ovarian) [µM] | TGI (OVCAR-4 ovarian) [µM] | GI50 (SW-620 colon) | TGI (SW-620 colon) [µM] | GI50 (HCC-2998 colon) [µM] | TGI (HCC-2998 colon) [µM] | GI50 (SNB-75 CNS) | TGI (SNB-75 CNS) | GI50 (SK-OV-3 ovarian) | TGI (SK-OV-3 ovarian) [µM]
COC1(C(=O)N[C@@H](C)c2ccc(-n3cc(F)cn3)nc2)CCC(c2nc(C)cc(Nc3cc(C)[nH]n3)n2)CC1 (some centres undefined) | 3.83 µM | 23.7 | 1.78 µM | 16.3 | 0.0676 µM | 18.2 | 0.314 µM | 1.56 µM | 4.14 µM | 17.4 | 1.94 | 17.9 | 2.32 µM | 24.2 | 11.1 | 23.3 | 0.196 µM | 0.848 µM | 1.11 µM | 5.07
CC/C=C\C=C/C(=O)N/C=C/CC1Cc2cccc(O)c2C(=O)O1 (centres undefined) | 20.3 µM | 41.2 | 34.9 µM | > 100 | 19.2 µM | 72.1 | 13.9 µM | 37.1 µM | 22.6 µM | > 100 | 44.4 | > 100 | 13.8 µM | 28.2 | 19.2 | 43.5 | 16 µM | > 100 µM | 46.7 µM | > 100
CN1CCN(CCc2cccc(C(=O)c3cnn(-c4ccc(F)cc4)c3N)c2)CC1 | > 25 µM | > 25 | > 25 µM | > 25 | > 25 µM | > 25 | > 25 µM | > 25 µM | > 25 µM | > 25 | > 25 | > 25 | > 25 µM | > 25 | > 25 | > 25 | > 25 µM | > 25 µM | > 25 µM | > 25
COc1cc(C2c3cc4c(cc3OC(N3CCCC3)C2C)OCO4)cc(OC)c1OC (centres undefined) |  | 1.03 |  | 50.4 |  | 3.68 |  | 0.732 µM |  | 20.7 |  | 80.1 |  | > 33.9 |  | 4.32 |  | 9.4 µM |  | 12.2
COc1ccc(C(=O)/C=C/c2ccc(/C=C/c3cc(OC)c(OC)c(OC)c3)cc2)cc1 | 13.7 µM | > 100 | 4.67 µM | 80.9 | 3.75 µM | 83.9 | 12.2 µM | 78.3 µM | 7.13 µM | > 100 | 6.31 | 47.3 | 4.5 µM | > 100 | 38.5 | > 100 | 5.5 µM | 47.7 µM | 15.6 µM | 64.5
CC1SC(c2c(Cl)cccc2Cl)N(NC(=O)c2[nH]c3ccc(F)cc3c2-c2ccccc2)C1=O (centres undefined) | 2.69 µM | 7.48 | 1.68 µM | 3.16 | 3.53 µM | 20.9 | 3.7 µM | 11.9 µM | 4 µM | 32.5 | 1.69 | 3.4 | 3.19 µM | 11.2 | 25 | > 100 | 1.43 µM | 3.27 µM | 1.95 µM | 4.2
COc1ccccc1NC(=O)C1=C(C)NC(C)=C(C(=O)Nc2ccccc2OC)C1c1ccccc1F |  | > 100 |  | > 100 |  | > 100 |  | > 100 µM |  | > 100 |  | > 100 |  | > 100 |  | > 100 |  | 62.4 µM |  | > 100
CNC(=O)OCc1nc(SC2CCCCO2)n(C)c1COC(=O)NC (centres undefined) |  | > 100 |  | > 100 |  | > 100 |  | > 100 µM |  | > 100 |  | > 100 |  | > 100 |  | > 100 |  | > 100 µM |  | > 100
CCN(Cc1ccc(F)c(F)c1)c1ccc(CO)c(Cl)c1 | 2.32 µM | 7.48 | 1.89 µM | 19.1 | 13.9 µM | 28.4 | 13.7 µM | 27.3 µM | 0.12 µM | 0.919 | 0.18 | 1.46 | 0.753 µM | 21 | 5.59 | 21.6 | 2.99 µM | 19.5 µM | 5.94 µM | 19.3
CC(C)NC[C@@H](C(=O)N1CCN(c2ncnc3c2[C@H](C)C[C@H]3O)CC1)c1ccc(Cl)cc1 | 3.48 µM and 7.6 µM | > 100 | > 10 µM and 5.05 µM | > 100 | 0.891 µM and 1.43 µM | > 91.9 | 0.401 µM and 0.396 µM | > 10 µM and 40.1 µM | 1.9 µM and 6 µM | > 100 | > 74 | > 100 | > 10 µM and 35.9 µM | > 100 |  | > 100 | 0.285 µM and 0.213 µM | > 10 µM and 5.44 µM | 0.596 µM and 0.783 µM | > 100
